BindingDB's records for doi:10.1016/s0024-3205(03)00272-8 (Merck Research Laboratories, 2003)

Experiments:
[1] = biological target: Metabotropic glutamate receptor 2 (Homo sapiens, UniProt Q14416)
[2] = biological target: Metabotropic glutamate receptor 1 (Rattus norvegicus, UniProt P23385)
[3] = biological target: T1, Retinoic acid receptor RXR-alpha (Rattus norvegicus, UniProt Q05343)
T1 sequence (Q05343 whole entry): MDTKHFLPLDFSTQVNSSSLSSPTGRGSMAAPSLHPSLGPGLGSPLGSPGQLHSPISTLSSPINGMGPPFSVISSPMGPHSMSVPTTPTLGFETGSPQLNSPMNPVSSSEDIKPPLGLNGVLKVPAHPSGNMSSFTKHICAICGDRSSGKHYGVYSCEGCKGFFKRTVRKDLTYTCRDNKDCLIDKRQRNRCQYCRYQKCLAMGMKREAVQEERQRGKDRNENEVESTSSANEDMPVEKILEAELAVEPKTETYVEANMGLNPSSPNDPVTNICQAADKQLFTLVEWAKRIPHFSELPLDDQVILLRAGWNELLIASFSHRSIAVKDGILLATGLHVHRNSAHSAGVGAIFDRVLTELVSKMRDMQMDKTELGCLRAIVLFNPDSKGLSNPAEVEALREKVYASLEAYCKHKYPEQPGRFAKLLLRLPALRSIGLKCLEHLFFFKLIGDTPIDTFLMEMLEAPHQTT

[4] = biological target: T2, Alpha-2C adrenergic receptor (Rattus norvegicus, UniProt P22086)
T2 sequence (P22086 whole entry): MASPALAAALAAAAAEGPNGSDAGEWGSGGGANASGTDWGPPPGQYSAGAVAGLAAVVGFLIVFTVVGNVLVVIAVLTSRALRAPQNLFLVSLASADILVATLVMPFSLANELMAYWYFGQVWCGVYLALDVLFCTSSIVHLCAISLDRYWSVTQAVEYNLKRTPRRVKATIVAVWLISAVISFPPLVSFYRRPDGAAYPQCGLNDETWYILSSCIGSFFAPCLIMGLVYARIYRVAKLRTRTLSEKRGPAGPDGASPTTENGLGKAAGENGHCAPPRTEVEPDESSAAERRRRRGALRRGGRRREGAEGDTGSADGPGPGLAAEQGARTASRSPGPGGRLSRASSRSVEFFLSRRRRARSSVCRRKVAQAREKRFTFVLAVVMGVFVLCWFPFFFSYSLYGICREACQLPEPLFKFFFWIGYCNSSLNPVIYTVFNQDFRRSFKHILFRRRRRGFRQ

Sequence of Metabotropic glutamate receptor 2 (Q14416 whole entry): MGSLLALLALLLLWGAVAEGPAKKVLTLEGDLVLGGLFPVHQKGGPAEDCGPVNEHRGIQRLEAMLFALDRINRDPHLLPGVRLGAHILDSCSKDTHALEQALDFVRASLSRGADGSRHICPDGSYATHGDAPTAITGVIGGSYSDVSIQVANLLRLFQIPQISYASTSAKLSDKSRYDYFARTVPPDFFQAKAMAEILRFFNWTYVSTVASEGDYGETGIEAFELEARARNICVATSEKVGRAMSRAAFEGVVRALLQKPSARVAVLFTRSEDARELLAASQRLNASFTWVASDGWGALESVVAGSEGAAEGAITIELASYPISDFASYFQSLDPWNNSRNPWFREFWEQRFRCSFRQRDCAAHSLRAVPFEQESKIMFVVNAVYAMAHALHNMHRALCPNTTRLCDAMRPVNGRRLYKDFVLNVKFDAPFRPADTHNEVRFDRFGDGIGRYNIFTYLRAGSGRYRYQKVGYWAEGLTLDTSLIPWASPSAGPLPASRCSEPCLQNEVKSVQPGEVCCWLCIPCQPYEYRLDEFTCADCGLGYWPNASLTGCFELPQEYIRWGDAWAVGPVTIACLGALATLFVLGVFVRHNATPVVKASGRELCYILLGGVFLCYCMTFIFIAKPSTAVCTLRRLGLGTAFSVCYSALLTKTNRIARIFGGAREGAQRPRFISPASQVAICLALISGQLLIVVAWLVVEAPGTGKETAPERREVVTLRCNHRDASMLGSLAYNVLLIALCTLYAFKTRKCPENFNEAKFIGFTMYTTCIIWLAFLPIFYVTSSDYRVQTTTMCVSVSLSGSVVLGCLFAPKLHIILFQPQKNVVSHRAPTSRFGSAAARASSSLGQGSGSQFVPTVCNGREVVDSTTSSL
Sequence of Metabotropic glutamate receptor 1 (P23385 whole entry): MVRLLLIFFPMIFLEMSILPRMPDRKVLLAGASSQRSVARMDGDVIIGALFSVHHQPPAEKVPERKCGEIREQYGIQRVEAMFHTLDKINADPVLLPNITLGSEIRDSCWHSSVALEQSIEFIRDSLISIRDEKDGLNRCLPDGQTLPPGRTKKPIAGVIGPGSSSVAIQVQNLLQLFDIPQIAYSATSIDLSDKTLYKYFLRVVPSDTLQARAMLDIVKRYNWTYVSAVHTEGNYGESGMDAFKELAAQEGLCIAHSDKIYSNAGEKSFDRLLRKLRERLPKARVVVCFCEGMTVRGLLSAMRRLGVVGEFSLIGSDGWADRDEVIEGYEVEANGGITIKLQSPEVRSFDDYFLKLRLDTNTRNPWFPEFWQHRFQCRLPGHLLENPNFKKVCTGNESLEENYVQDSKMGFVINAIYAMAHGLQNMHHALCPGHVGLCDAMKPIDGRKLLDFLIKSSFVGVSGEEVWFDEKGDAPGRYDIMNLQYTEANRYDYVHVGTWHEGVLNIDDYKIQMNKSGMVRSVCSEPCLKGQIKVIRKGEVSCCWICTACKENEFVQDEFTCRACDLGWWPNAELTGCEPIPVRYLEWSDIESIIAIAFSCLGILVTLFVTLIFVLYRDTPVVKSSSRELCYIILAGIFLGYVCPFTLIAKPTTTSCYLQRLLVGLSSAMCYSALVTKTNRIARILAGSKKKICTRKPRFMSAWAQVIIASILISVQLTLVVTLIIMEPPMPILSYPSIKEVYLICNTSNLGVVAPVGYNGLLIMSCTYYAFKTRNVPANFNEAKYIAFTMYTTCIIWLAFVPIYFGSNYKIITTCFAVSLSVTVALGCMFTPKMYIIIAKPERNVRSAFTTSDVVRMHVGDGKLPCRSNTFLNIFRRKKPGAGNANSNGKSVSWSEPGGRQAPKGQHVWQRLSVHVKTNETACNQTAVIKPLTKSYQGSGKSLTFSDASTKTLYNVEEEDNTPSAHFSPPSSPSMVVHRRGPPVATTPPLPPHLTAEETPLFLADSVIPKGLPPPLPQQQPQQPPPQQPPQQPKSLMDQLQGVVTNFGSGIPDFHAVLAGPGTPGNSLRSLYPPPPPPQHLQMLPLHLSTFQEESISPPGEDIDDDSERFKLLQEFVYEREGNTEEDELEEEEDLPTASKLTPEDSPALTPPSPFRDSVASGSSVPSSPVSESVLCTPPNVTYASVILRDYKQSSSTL

NC1(C(=O)O)CCc2cc(C(=O)O)ccc21 (racemic) [AIDA]
Ki [1]: 1.1 µM

NC(C(=O)O)c1ccc(C(=O)O)cc1 (centres undefined) [4-(Amino-carboxy-methyl)-benzoic acid]
Ki [2]: 1.1 µM

CC12NC(Cc3ccccc31)c1ccccc12 (centres undefined) [CAS_180081]
Ki [3]: 7.6 µM

COc1cccc(OC)c1OCCNCC1CSc2ccccc2O1 (centres undefined) [NSC_2325]
Ki [4]: 7.6 µM
